Experimental data published in ChEMBL document CHEMBL1201862, “PubChem BioAssay data set” (2004).
The source made the active and inactive calls.

Key:
Insulin-degrading enzyme [1] = target: T1, Insulin-degrading enzyme (Homo sapiens, UniProt P14735); assay: recombinant IDE activation, cell-free – biochemical, fluorescence polarization, counter-screen for IDE activator project, dose response (AID 588681)
T1 sequence (P14735 whole entry): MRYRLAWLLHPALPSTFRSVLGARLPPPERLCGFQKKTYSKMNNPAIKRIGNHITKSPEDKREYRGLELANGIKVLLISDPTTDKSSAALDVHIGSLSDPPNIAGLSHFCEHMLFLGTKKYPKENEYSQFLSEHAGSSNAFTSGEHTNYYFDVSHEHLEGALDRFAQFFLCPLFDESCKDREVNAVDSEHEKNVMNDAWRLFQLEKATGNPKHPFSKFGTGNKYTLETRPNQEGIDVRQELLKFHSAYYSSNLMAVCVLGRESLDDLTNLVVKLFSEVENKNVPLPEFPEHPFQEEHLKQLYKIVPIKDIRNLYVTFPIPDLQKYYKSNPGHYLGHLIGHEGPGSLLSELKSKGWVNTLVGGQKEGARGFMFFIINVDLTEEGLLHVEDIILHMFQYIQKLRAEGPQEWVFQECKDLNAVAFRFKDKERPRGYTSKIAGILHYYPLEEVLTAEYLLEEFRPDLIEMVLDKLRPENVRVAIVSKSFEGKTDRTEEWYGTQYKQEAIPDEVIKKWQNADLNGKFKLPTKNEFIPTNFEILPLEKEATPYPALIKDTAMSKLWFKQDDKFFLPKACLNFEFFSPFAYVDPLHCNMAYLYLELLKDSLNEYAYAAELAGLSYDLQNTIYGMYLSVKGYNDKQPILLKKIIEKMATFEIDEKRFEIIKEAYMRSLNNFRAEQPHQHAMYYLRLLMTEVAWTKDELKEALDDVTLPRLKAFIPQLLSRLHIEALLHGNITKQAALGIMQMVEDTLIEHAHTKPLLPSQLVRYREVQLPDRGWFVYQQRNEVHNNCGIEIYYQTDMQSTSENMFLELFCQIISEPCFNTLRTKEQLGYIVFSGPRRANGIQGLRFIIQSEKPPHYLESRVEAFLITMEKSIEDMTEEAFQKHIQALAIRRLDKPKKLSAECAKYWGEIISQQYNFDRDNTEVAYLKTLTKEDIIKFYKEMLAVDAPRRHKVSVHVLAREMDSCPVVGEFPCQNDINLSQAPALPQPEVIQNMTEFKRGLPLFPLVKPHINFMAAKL

Insulin-degrading enzyme [2] = target: T1, Insulin-degrading enzyme; assay: cellular IDE activation of Abeta substrate cleavage – fluorescence polarization, HEK cells, dose response (AID 588439); assay type: functional, cell-based
HEK293 [3] = assay: membrane integrity loss in HEK cells – cell-based, fluorescence, cytotoxicity control for IDE activator project, dose response (AID 588440); assay type: functional; conditions: Homo sapiens;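 also: cytotoxicity by LDH release measuring loss of membrane integrity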
HEK293 [4] = assay: optical interference in Abeta FP readout, dose response, artefact control for IDE activator project, biochemical, fluorescence polarization (AID 588442); assay type: functional, cell-based; conditions: Homo sapiens
[5] = target: T2, Sentrin-specific protease 8 (Homo sapiens, UniProt Q96LD8); assay: inhibition of human SENP8 cleavage activity – biochemical, luminescence, SAR follow-up (AID 504501); assay type: functional
T2 sequence (Q96LD8 whole entry): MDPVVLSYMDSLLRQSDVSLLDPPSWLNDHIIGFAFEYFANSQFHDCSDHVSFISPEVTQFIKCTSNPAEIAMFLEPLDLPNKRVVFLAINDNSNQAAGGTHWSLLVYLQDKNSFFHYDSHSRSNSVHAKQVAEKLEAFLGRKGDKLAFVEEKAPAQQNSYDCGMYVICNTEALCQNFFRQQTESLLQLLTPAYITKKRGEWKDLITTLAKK

Caspase-3 = target: T3, Caspase-3 (Homo sapiens, UniProt P42574); assay: SAR Analysis of small molecule inhibitors of Sentrin-specific proteases (SENPs) using a Caspase-3 Selectivity assay. [Related pubchem assays (depositor defined):AID2540, AID2599, AID434973, AID489001]; assay type: functional
T3 sequence (P42574 whole entry): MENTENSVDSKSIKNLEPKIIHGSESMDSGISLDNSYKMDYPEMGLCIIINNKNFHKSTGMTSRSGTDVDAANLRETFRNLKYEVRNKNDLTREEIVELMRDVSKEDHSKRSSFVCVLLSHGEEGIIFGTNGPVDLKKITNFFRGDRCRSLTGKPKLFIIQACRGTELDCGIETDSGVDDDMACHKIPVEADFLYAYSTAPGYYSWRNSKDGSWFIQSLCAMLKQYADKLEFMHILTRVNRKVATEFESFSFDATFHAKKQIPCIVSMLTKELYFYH

[6] = target: T4, Sentrin-specific protease 6 (Homo sapiens, UniProt Q9GZR1); assay: SAR Analysis of small molecule inhibitors of Sentrin-specific protease 6 (SENP6) using a Luminescent assay. [Related pubchem assays (depositor defined):AID2582, AID2599]; assay type: functional
T4 sequence (Q9GZR1 whole entry): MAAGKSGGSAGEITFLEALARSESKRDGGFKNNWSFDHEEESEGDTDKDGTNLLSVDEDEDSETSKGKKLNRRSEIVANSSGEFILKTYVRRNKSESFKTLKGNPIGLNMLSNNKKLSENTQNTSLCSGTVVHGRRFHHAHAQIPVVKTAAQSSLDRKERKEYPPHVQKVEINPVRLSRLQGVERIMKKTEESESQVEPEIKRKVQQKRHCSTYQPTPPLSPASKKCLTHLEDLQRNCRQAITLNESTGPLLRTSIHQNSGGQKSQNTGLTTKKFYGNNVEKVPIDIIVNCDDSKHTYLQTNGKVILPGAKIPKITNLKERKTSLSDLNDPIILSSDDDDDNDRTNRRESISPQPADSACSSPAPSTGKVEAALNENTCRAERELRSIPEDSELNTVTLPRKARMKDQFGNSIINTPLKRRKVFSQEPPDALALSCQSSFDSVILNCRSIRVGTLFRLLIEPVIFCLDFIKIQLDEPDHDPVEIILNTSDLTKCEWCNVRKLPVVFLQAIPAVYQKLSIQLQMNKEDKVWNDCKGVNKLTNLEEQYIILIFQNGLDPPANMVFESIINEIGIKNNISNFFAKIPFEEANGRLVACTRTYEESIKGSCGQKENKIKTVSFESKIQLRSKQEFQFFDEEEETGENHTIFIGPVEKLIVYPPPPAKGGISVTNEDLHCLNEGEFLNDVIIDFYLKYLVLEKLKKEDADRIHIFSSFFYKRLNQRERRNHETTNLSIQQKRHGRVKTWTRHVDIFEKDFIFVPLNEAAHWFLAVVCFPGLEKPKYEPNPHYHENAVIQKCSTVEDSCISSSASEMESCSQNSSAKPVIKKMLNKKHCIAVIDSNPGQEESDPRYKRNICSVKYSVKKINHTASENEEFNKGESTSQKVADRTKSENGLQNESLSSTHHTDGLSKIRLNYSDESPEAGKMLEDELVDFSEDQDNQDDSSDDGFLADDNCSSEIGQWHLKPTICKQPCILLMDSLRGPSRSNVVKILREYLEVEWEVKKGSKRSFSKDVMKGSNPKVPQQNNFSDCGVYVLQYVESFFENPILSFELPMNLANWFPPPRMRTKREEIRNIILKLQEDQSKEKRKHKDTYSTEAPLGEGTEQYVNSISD

[7] = target: T5, Sentrin-specific protease 7 (Homo sapiens, UniProt Q9BQF6); assay: inhibition of human SENP7 cleavage activity – biochemical, luminescence, SAR follow-up (AID 504497); assay type: functional
T5 sequence (Q9BQF6 whole entry): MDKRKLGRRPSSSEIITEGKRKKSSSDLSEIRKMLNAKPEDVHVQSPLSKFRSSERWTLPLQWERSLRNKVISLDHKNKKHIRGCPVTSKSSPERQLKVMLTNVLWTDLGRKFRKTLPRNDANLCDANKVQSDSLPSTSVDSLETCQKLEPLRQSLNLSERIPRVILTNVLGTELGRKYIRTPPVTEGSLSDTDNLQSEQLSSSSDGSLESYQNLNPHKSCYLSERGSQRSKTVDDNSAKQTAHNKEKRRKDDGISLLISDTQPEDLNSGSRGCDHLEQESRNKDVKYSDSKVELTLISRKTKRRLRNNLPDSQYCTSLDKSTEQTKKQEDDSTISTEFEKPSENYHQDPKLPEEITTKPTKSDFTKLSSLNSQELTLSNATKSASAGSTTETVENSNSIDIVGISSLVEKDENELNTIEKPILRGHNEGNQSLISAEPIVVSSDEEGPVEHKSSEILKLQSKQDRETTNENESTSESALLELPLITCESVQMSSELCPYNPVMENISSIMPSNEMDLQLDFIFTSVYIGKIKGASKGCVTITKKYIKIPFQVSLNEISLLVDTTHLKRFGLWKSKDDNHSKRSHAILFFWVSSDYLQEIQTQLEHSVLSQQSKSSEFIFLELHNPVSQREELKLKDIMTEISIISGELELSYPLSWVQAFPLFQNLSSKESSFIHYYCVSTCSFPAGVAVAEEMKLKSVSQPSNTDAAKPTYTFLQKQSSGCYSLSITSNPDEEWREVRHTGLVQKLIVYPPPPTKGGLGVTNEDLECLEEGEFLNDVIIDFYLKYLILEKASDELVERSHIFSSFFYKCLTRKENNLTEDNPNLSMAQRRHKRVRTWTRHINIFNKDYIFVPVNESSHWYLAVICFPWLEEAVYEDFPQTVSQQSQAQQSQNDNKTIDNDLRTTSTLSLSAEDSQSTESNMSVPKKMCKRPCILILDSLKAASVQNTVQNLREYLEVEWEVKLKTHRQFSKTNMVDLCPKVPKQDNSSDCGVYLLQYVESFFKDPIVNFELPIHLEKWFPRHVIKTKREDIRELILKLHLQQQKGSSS

CCOC(=O)c1cccc(P(C)(C)=O)c1
inactive: EC50 (Insulin-degrading enzyme [1]) > 54.7 µM | EC50 (Insulin-degrading enzyme [2]) > 54.7 µM | IC50 (HEK293 [3]) > 89.1 µM | EC50 (HEK293 [4]) > 54.7 µM

NS(=O)(=O)c1ccc(CCNC(=O)c2sc3cc(Cl)ccc3c2Cl)cc1
inactive: IC50 [5] > 99 µM | IC50 (Caspase-3) > 99 µM | IC50 [6] > 99 µM | IC50 [7] > 99 µM
